# In ChEMBL document CHEMBL1833851, “Design, synthesis and X-ray crystallographic study of new nonsecosteroidal vitamin D receptor ligands” (Bioorg Med Chem Lett, 2011):
# Target: T1, Vitamin D3 receptor (Homo sapiens, UniProt P11473)
# T1 sequence (P11473 whole entry): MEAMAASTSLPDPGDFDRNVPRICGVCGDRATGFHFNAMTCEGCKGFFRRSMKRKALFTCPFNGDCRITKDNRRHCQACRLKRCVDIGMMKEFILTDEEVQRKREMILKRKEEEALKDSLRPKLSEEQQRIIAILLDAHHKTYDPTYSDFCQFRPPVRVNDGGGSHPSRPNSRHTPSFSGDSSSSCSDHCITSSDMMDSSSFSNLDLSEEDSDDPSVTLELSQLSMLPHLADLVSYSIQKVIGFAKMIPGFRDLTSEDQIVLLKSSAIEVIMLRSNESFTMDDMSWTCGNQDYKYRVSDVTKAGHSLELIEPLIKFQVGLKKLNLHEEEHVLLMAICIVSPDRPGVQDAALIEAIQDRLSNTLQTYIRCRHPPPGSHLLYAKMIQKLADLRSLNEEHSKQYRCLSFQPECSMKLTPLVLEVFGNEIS
# Assay: Activity at human VDR expressed in human HOS cells transfected with pGL3-hOc, pCDNA-hVDR and phRL-TK assessed as assessed as transcriptional activation measured 24 hrs post […] by luciferase reporter gene assay
# Type: cell-based
row,Structure (SMILES),EC50
1,CCC(CC)(c1ccc(OC[C@H](O)C(C)(C)C)c(C)c1)c1ccc(OC(CCO)CCO)c(C)c1,19.4 nM
2,CCC(CC)(c1ccc(OCC(CO)CO)c(C)c1)c1ccc(OC[C@H](O)C(C)(C)C)c(C)c1,1.11 nM
3,CCC(CC)(c1ccc(OC[C@H](O)C(C)(C)C)c(C)c1)c1ccc(O[C@@H](CO)[C@@H](O)CO)c(C)c1,0.92 nM
4,CCC(CC)(c1ccc(OC[C@H](O)C(C)(C)C)c(C)c1)c1ccc(O[C@H](CO)[C@H](O)CO)c(C)c1,1.25 nM
5,CCC(CC)(c1ccc(OC[C@H](O)C(C)(C)C)c(C)c1)c1ccc(O[C@@H](CO)CCO)c(C)c1,0.06 nM
6,CCC(CC)(c1ccc(OC[C@H](O)C(C)(C)C)c(C)c1)c1ccc(O[C@H](CO)CCO)c(C)c1,1.29 nM
